Values quoted from earlier work as cited in patent US20200277251A1, “NOVEL ANTIBACTERIAL COMPOUNDS AND METHODS OF MAKING AND USING SAME” (BROWN UNIVERSITY, priority 2017, published 2020).

Tested on: LT
Conditions: purified autolysin; cited from earlier work

## CC1=N[C@@H]2[C@@H](O)[C@H](O)[C@@H](CO)O[C@@H]2S1 [NAG-thiazoline]
  binding to LT: weak binder
